# Source: patent US20160160294A1, “METHODS AND MATERIALS FOR PREDICTING RESPONSE TO NIRAPARIB” (Tesaro, priority 2014, published 2016)
# Like-named read-outs stand apart in the source and are kept apart here.
# Experiments:
# [1] = system: ovarian cancer PDX models
# Description: A series of ovarian tumors were implanted orthotopically in mice and the resulting patient-derived xenograft (PDX) models were evaluated for niraparib sensitivity by ultrasound imaging. The BRCA status (mutated “BRCAmut” or wild-type “BRCAwt”) of each PDX model was evaluated, with BRCA1/2 variants identified by the test were classified in accordance with the recommendations of the American College of Medical Genetics and Genomics (ACMG) for standards in the interpretation and reporting of sequence variations. HRD scores were also determined for the PDX models as described in Examples 1 & 2.
# [2] = system: basal breast cancer (BBC) patient-derived xenograft (PDX) models; settings: subset of BBC PDX models; cited from earlier work
# [3] = system: TNBC patient-derived xenograft (PDX) models
# Description: Mice were assigned to homogeneous groups of 10 animals when tumors reached a size of 70-200 mm^3, and were treated with niraparib at 50 mg/kg or 75 mg/kg once a day for 28 days. The compound was delivered by gavage (p.o) under a volume of […] for a 25-g mouse. Tumor volume was evaluated by measuring biweekly tumor diameters with a caliper.
structure (smiles),measurement,setting,value
NC(=O)c1cccc2cn(-c3ccc([C@@H]4CCCNC4)cc3)nc12 [niraparib],Response rate,[1]; All models (8/26),31% (8/26)
same,Response rate,[1]; BRCA1/2 deficient models (4/8),50% (4/8)
same,Response rate,[1]; HRD+ BRCA wt models (4/8),50% (4/8)
same,response of BBC PDX models to single agent treatment,[2],responded robustly
same,effect on tumor volume,[3]; T330 model (FIG. 8),regression of tumor volume
same,number of TNBC PDX models whose growth was significantly inhibited,"[3]; among 20 tested, 50 mg/kg or 75 mg/kg once a day for 28 days, p.o.",6
same,activity in TNBC PDX models,[3]; subset of TNBC PDX models,robust activity
